Measurements as given in the supplement of paper PMC5412046.
Counter-ions that a name gives are not always drawn.

How the values were obtained:
SB.mhdgc-1 [1] = assay: area under the dose-response curve of % viability (trapezoidal, 11 doses) (% viability x log10 concentration); higher = less cytotoxic; settings: SB.mhdgc-1 (hereditary c.1380delA CDH1 gastric cancer)
Summary of the method: (§1)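 In 1536-well plates, each well held 500 gastric cancer cells of hereditary or sporadic patient origin in 5 μL medium. Compound in DMSO (23 nL, pintool) was added at 11 concentrations spaced threefold apart, and the top concentration was noted per compound. Luminescence was read on a ViewLux after a 48 h incubation and a 30 min room-temperature treatment with CellTiter-Glo. Figures give viability normalised to DMSO, either at the highest concentration or as trapezoidal area under the curve.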

SB.msgc-1 [2] = assay: as above; settings: SB.msgc-1 (sporadic gastric cancer)
Summary of the method: as §1

SB.mhdgc-1 [3] = assay: viability at highest tested concentration (MAXR) relative to DMSO; higher = less cytotoxic; settings: SB.mhdgc-1 (hereditary c.1380delA CDH1 gastric cancer)
Summary of the method: as §1

SB.msgc-1 [4] = assay: as above; settings: SB.msgc-1 (sporadic gastric cancer)
Summary of the method: as §1

| Compound | area under the dose-response curve (SB.mhdgc-1 [1]) | area under the dose-response curve (SB.msgc-1 [2]) | viability (SB.mhdgc-1 [3]) [%] | viability (SB.msgc-1 [4]) [%] |
| --- | --- | --- | --- | --- |
| CCN(CC)CCCCNc1ncc2cc(-c3cc(OC)cc(OC)c3)c(NC(=O)NC(C)(C)C)nc2n1 (top concentration 46.0829 µM) | 471 | 482 | 2.12 | 72.5 |
| CCC\C1=C\C(=O)NC(=S)N1 [Propylthiouracil] (top concentration 46.0829 µM) | 545 | 584 | 64.9 | 112 |
| CC(C)(N)C(=O)N[C@H](COCc1ccccc1)C(=O)N1CCC2(CC1)CN([S+](C)(=O)[O-])c1ccccc12 [Ibutamoren mesilate] (top concentration 46.0829 µM) | 473 | 585 | 59.6 | 107 |
| N[S+](=O)([O-])OC[C@@H]1C[C@@H](n2ccc3c(N[C@H]4CCc5ccccc54)ncnc32)C[C@@H]1O [MLN-4924] (top concentration 46.0829 µM) | 536 | 400 | 69.4 | 37.5 |
| C[C@@H]1CC[C@@]2(CC[C@]3(C)\C(=C/C[C@@H]4[C@@]5(C)C[C@@H](O)[C@H](O)[C@@](C)(CO)[C@@H]5CC[C@@]34C)[C@@H]2[C@H]1C)C(O)=O [Asiatic acid] (top concentration 46.0829 µM) | 559 | 520 | 111 | 102 |
| CN(C)c1ccc(-c2nc3c(N4CCN(CC(=O)Nc5nccs5)CC4)c(Cl)cnc3[nH]2)cc1 (top concentration 46.0829 µM) | 410 | 460 | 42.8 | 73 |
| CC/1=C/C(=O)N(O)/C(=C1)C2CCCCC2 [ciclopirox] (top concentration 46.0829 µM) | 395 | 493 | 7.01 | 48.1 |
| C[C@H](NCc1ccc2c(c1)nc(NC(=O)c1ccc(-c3cn[nH]c3)s1)n2CCc1ccccc1)C(C)(C)C (top concentration 46.0829 µM) | 350 | 400 | 2.84 | 1.8 |
| CCOC(=O)c1ccc(C#Cc2ccc3c(c2)C(C)(C)CCS3)nc1 [Tazarotene] (top concentration 46.0829 µM) | 533 | 515 | 54.9 | 98.1 |
| C=CC(=O)Nc1cc2c(Nc3ccc(F)c(Cl)c3)ncnc2cc1OCCCN1CCOCC1 [Canertinib] (top concentration 46.0829 µM) | 496 | 271 | 2.07 | 0.659 |
| COc1cccc2c1C(=O)c1c(O)c3c(c(O)c1C2=O)C[C@@](O)(C(=O)CO)C[C@@H]3O[C@H]1C[C@H](N)[C@@H](O)[C@H](C)O1 [Epirubicin hydrochloride] (top concentration 46.0829 µM) | 353 | 390 | 24.7 | 36.3 |
| O=C(Nc1cccc(C(F)(F)F)c1)Nc1cc([S+](=O)([O-])NC2CC2)ccc1-c1ccsc1 [AGI-6780] (top concentration 46.0829 µM) | 560 | 598 | 94.2 | 73.3 |
| CC12CC3CC(C)(C1)CC(N)(C3)C2 [Memantine hydrochloride] (top concentration 46.0829 µM) | 524 | 472 | 3.41 | 3.88 |
| O=C1Nc2ccc(I)cc2/C1=C/c1cc(Br)c(O)c(Br)c1 [GW-5074] (top concentration 46.0829 µM) | 518 | 453 | 56.2 | 53.8 |
| CN(C)CCC=C1C2=C(C=CC=C2)\C=C/C3=C1C=CC=C3 [Cyclobenzaprine hydrochloride] (top concentration 46.0829 µM) | 529 | 570 | 31.9 | 94.8 |
| CC1(C)SCCN([S+](=O)([O-])c2ccc(OCC#CCO)cc2)[C@H]1C(=O)NO [Apratastat] (top concentration 46.0829 µM) | 548 | 545 | 87.4 | 93.7 |

| Compound | area under the dose-response curve (SB.mhdgc-1 [1]) | area under the dose-response curve (SB.msgc-1 [2]) | viability (SB.mhdgc-1 [3]) [%] | viability (SB.msgc-1 [4]) [%] |
| --- | --- | --- | --- | --- |
| CC(C)C[C@H](NC(=O)[C@@H](NC(=O)c1cccc(-c2ccccc2)n1)[C@@H](C)O)B(O)O [Delanzomib] (top concentration 46.0829 µM) | 198 | 184 | 1.09 | 1.1 |
| Cc1nc(NC(=O)N2CCC[C@H]2C(N)=O)sc1-c1csc(C(C)(C)C)n1 [A-66] (top concentration 46.0829 µM) | 377 | 352 | 33.3 | 37.4 |
| O=C(CC12CC3CC(CC(C3)C1)C2)Nc1cccc2nc(NCCNCCO)ccc12 (top concentration 46.0829 µM) | 358 | 498 | 2.93 | 40.7 |
| NCCS(=O)(=O)O [Taurine] (top concentration 46.0829 µM) | 549 | 578 | 79 | 101 |
| C/C=C/C[C@@H](C)C(=O)[C@H]1C(=O)N[C@@H](C(C)C)C(=O)N(C)CC(=O)N(C)[C@@H](CC(C)C)C(=O)N[C@@H](C(C)C)C(=O)N(C)[C@@H](CC(C)C)C(=O)N[C@@H](C)C(=O)N[C@H](C)C(=O)N(C)[C@@H](CC(C)C)C(=O)N(C)[C@@H](CC(C)C)C(=O)N(C)[C@@H](C(C)C)C(=O)N1C [Valspodar] (top concentration 46.0829 µM) | 393 | 475 | 37.4 | 35.1 |
| Cc1cn(-c2cc(NC(=O)c3ccc(C)c(Nc4nccc(-c5cccnc5)n4)c3)cc(C(F)(F)F)c2)cn1 [Nilotinib] (top concentration 46.0829 µM) | 415 | 463 | 2.14 | 33.5 |
| O.O.CCN1CCN(C(=O)N[C@H](C(=O)N[C@H]2[C@@H]3SC\C(=C(/N3C2=O)C(O)=O)CSC4=NN=N[N]4C)C5=CC=C(O)C=C5)C(=O)C1=O [Cefoperazone sodium] (top concentration 13.52 µM) | 549 | 556 | 125 | 119 |
| CC(C)c1onc(-c2c(Cl)cccc2Cl)c1COc1ccc(/C=C/c2cccc(C(=O)O)c2)c(Cl)c1 [GW-4064X] (top concentration 46.0829 µM) | 501 | 588 | 80.6 | 74.3 |
| CN[C@@H](C)C(=O)N[C@H]1CCCC[C@H]2CC[C@@H](C(=O)N[C@@H](c3ccccc3)c3cn(CCCCc4ccc(CCCCn5cc([C@@H](NC(=O)[C@@H]6CC[C@@H]7CCCC[C@H](NC(=O)[C@H](C)NC)C(=O)N76)c6ccccc6)nn5)cc4)nn3)N2C1=O [SM-164] (top concentration 46.0829 µM) | 283 | 449 | 2.4 | 49.1 |
| CC(C)CC(=O)N[C@H](C(=O)N[C@H](C(=O)N[C@@H](CC(C)C)[C@@H](O)CC(=O)N[C@@H](C)C(=O)N[C@@H](CC(C)C)[C@@H](O)CC(=O)O)C(C)C)C(C)C [Pepstatin] (top concentration 46.0829 µM) | 488 | 511 | 82.2 | 92.9 |
| CCOC(=O)c1cncn1[C@H](C)c1ccccc1 [Etomidate] (top concentration 46.0829 µM) | 593 | 533 | 107 | 90.1 |
| Nc1nc(N)c2nc(CNc3ccc(C(=O)NC(CCC(=O)O)C(=O)O)cc3)cnc2n1 (centres undefined) [Aminopterin] (top concentration 46.0829 µM) | 409 | 285 | 49.4 | 36.4 |
| O=C(O)C1=NC(C(=O)O)CC(/C=C/N2c3cc(O)c(OC4OC(CO)C(O)C(O)C4O)cc3CC2C(=O)O)=C1 (centres undefined) [Betanin] (top concentration 46.0829 µM) | 628 | 331 | 133 | 78.6 |
| CN[C@@H]1C[C@H]2O[C@@](C)([C@@H]1OC)n1c3ccccc3c3c4c(c5c6ccccc6n2c5c31)C(=O)N[C@H]4O [7-Hydroxystaurosporine] (top concentration 46.0829 µM) | 220 | 344 | 2.27 | 17.2 |
| CC[S+](=O)([O-])c1cccc(-c2cc(C(=O)NC3CCN(C)CC3)c(C)c3[nH]c4ncc(C)cc4c23)c1 [TAK-901] (top concentration 46.0829 µM) | 383 | 482 | 44.2 | 49.1 |
